# Measured values from US9693563B2, “Boron-silane polyether complex” (3M INNOVATIVE PROPERTIES COMPANY, priority 2013, dated 2017).
# Assay: Electrical conductivity of borax, silane polyether and borax-SPE complex solutions
# Type: physicochemical
# Conditions: for Conductivity: 25° C., 20 ml solution
# Experimental: Electrical conductivity is an effective quantitative tool to study complex formation in water for the system of a weak acid and a weak base. In the current study, the silane polyether acts as the weak acid (pH around 6) and borax acts as the weak base (pH around 9). The following analyses were carried out at 25° C. using a 20 ml solution of borax or SPE-1. Conductivity was measure at 45 minutes (immediately after complexation). The results are reported in Table 4a in units of microSiemens per centimeter (μS/cm).
# The electrical conductivity of 0.025 M solutions of borax-SPE complex were prepared at various molar ratios of borax to silane polyether (B:S). The following analyses were carried out at 25° C. using a 20 ml solution. Conductivity was measure at 45 minutes and again after 24 hours to assess the stability of the complex.
smiles,measurement,setting,value
"O=BOB(O)OB(O)OB=O [Borax, borax (Na2B4O7.10H2O)]",Conductivity,0.0005M,133 μS/cm
same,Conductivity,0.001M,260 μS/cm
same,Conductivity,0.005M,853 μS/cm
same,Conductivity,0.01M,1225 μS/cm
same,Conductivity,0.05M,4530 μS/cm
same,Conductivity,0.1M,9000 μS/cm
same,pH,weak acid / weak base in water,around 9
